According to PubChem BioAssay AID330 (DTP/NCI, 2004):
Values joined by “and” are separate entries in the source; they are usually repeats but may differ in a detail not shown here. Identical values can stand only once. Inconclusive results and toxic doses are left out. The calls were made as follows: active = survival T/C of 150% or more; inactive = T/C below 125% in these data.

System: P388 leukemia ip, CD2F1 mice, survival T/C
Assay: NCI In Vivo Anticancer Drug Screen. Data for tumor model P388 Leukemia (intraperitoneal) in CD2F1 (CDF1) mice
Conditions: endpoint: median survival time, higher = longer survival
Procedure, shortened: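 Mice carrying the transplanted tumor received test compound or vehicle. Survival was recorded in each group, and the value is the treated-group measurement divided by that of the vehicle-treated control group.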

[1] = dose: 50.0 mg/kg/injection, schedule: Q01DX005 (ip), vehicle: Klucel (hydroxypropylcellulose) (HPC)
[2] = dose: 100.0 mg/kg/injection, schedule: Q01DX005 (ip), vehicle: Klucel (hydroxypropylcellulose) (HPC)
[3] = dose: 200.0 mg/kg/injection, schedule: Q01DX005 (ip), vehicle: Klucel (hydroxypropylcellulose) (HPC)
[4] = dose: 100.0 mg/kg/injection, schedule: Q01DX001 (ip), vehicle: Klucel (hydroxypropylcellulose) (HPC)
[5] = dose: 200.0 mg/kg/injection, schedule: Q01DX001 (ip), vehicle: Klucel (hydroxypropylcellulose) (HPC)
[6] = dose: 400.0 mg/kg/injection, schedule: Q01DX001 (ip), vehicle: Klucel (hydroxypropylcellulose) (HPC)
[7] = dose: 50.0 mg/kg/injection, schedule: Q01DX009 (ip), vehicle: saline
[8] = dose: 100.0 mg/kg/injection, schedule: Q01DX009 (ip), vehicle: saline
[9] = dose: 200.0 mg/kg/injection, schedule: Q01DX009 (ip), vehicle: saline
[10] = dose: 25.0 mg/kg/injection, schedule: Q01DX009 (ip), vehicle: Klucel (hydroxypropylcellulose) (HPC)
[11] = dose: 50.0 mg/kg/injection, schedule: Q01DX009 (ip), vehicle: Klucel (hydroxypropylcellulose) (HPC)
[12] = dose: 100.0 mg/kg/injection, schedule: Q01DX009 (ip), vehicle: Klucel (hydroxypropylcellulose) (HPC)
[13] = dose: 200.0 mg/kg/injection, schedule: Q01DX009 (ip), vehicle: Klucel (hydroxypropylcellulose) (HPC)
[14] = dose: 25.0 mg/kg/injection, schedule: Q01DX005 (ip), vehicle: Klucel (hydroxypropylcellulose) (HPC)
[15] = dose: 100.0 mg/kg/injection, schedule: Q01DX001 (ip), vehicle: saline
[16] = dose: 200.0 mg/kg/injection, schedule: Q01DX001 (ip), vehicle: saline
[17] = dose: 400.0 mg/kg/injection, schedule: Q01DX001 (ip), vehicle: saline
[18] = dose: 50.0 mg/kg/injection, schedule: Q01DX009 (ip), vehicle: saline with Tween-80
[19] = dose: 100.0 mg/kg/injection, schedule: Q01DX009 (ip), vehicle: saline with Tween-80
[20] = dose: 60.0 mg/kg/injection, schedule: Q01DX005 (ip), vehicle: saline
[21] = dose: 120.0 mg/kg/injection, schedule: Q01DX005 (ip), vehicle: saline
[22] = dose: 50.0 mg/kg/injection, schedule: Q01DX005 (ip), vehicle: saline with Tween-80
[23] = dose: 100.0 mg/kg/injection, schedule: Q01DX005 (ip), vehicle: saline with Tween-80
[24] = dose: 200.0 mg/kg/injection, schedule: Q01DX005 (ip), vehicle: saline with Tween-80
[25] = dose: 200.0 mg/kg/injection, schedule: Q01DX009 (ip), vehicle: saline with Tween-80

Measured: T/C

CCOc1nc(N)c(C(=O)c2ccc(O)c(O)c2)s1
inactive: [1] 111 % of control | [2] 109 % of control | [3] 87 % of control

Cc1ccc(S(=O)(=O)N/N=C/c2c(Cl)n(C(=O)c3ccccc3F)c3ccccc23)cc1
inactive: dose: 50.0 mg/kg/injection, schedule: Q01DX001 (ip), vehicle: Klucel (hydroxypropylcellulose) (HPC) 93 % of control | [4] 95 % of control | [5] 90 % of control | [6] 86 % of control

CCCCCN(CCC)CCCCCCCCCN1CCCc2cc(OC)ccc21
inactive: dose: 50.0 mg/kg/injection, schedule: Q01DX005 (ip), vehicle: saline + Tween-80 + alcohol 105 % of control | dose: 100.0 mg/kg/injection, schedule: Q01DX005 (ip), vehicle: saline + Tween-80 + alcohol 110 % of control

O=[N+]([O-])c1ccc(-n2nnc3ccccc32)nc1
inactive: [7] 108 % of control | [8] 99 % of control | [9] 99 % of control

COc1cc([N+](=O)[O-])c2nccc(C)c2c1
inactive: [10] 100 % of control | [11] 101 % of control | [12] 101 % of control | [13] 104 % of control

COc1cc2c(cc1C(C)c1ccc(OC(C)=O)cc1)OCO2 (stereo unspecified)
inactive: [14] 103 % of control | [1] 103 % of control | [2] 99 % of control | [3] 101 % of control

CCCCCCCCCc1cc(=O)[nH]c(=O)[nH]1
inactive: [4] 96 % of control | [5] 96 % of control | [6] 94 % of control

C[C@H]1C/C=C/[C@H]2[C@@H]3O[C@]3(C)[C@@H](C)[C@H]3[C@H](Cc4ccccc4)NC(=O)[C@]32OC(=O)O/C=C/[C@@](C)(O)C1=O
inactive: dose: 1.25 mg/kg/injection, schedule: Q01DX009 (ip), vehicle: Klucel (hydroxypropylcellulose) (HPC) 99 % of control | dose: 2.5 mg/kg/injection, schedule: Q01DX009 (ip), vehicle: Klucel (hydroxypropylcellulose) (HPC) 94 % of control | dose: 5.0 mg/kg/injection, schedule: Q01DX009 (ip), vehicle: Klucel (hydroxypropylcellulose) (HPC) 97 % of control | dose: 10.0 mg/kg/injection, schedule: Q01DX009 (ip), vehicle: Klucel (hydroxypropylcellulose) (HPC) 88 % of control

C1CCCN(N2CCOCC2)CC1
inactive: [15] 104 % of control | [16] 98 % of control | [17] 101 % of control

Nc1ncnc2c1CCc1ccccc1-2
inactive: dose: 100.0 mg/kg/injection, schedule: Q04DX002 (ip), vehicle: saline with Tween-80 107 % of control | dose: 200.0 mg/kg/injection, schedule: Q04DX002 (ip), vehicle: saline with Tween-80 112 % of control

C=C([Se]c1ccccc1)C(C)(C)C
inactive: [18] 114 % of control | [19] 119 % of control

C1Cc2onc(-c3noc4c3CCC4)c2C1
inactive: [20] 104 % of control | [21] 96 % of control | dose: 240.0 mg/kg/injection, schedule: Q01DX005 (ip), vehicle: saline 99 % of control

CSCCC(NC(=O)CNC(=O)OCc1ccccc1)C(=O)O (stereo unspecified)
inactive: [10] 94 % of control | [11] 95 % of control | [12] 100 % of control | [13] 93 % of control | dose: 400.0 mg/kg/injection, schedule: Q01DX009 (ip), vehicle: Klucel (hydroxypropylcellulose) (HPC) 87 % of control

O=C1CC2(CCCC2)C(=O)N1c1ccccc1O
inactive: dose: 25.0 mg/kg/injection, schedule: Q01DX009 (ip), vehicle: saline 103 % of control | [11] 118 % of control and 94 % of control | [7] 96 % of control | [12] 100 % of control | [8] 96 % of control | [13] 100 % of control | [9] 96 % of control

COC1=C(OC)C(=O)C(N(C)C)=C(CO)C1=O
inactive: dose: 30.0 mg/kg/injection, schedule: Q01DX005 (ip), vehicle: saline 105 % of control | [20] 103 % of control and 108 % of control | [21] 117 % of control and 120 % of control

NC(Cc1ccc(O)c(Cl)c1)C(=O)O (stereo unspecified)
inactive: dose: 50.0 mg/kg/injection, schedule: Q01DX005 (ip), vehicle: saline 98 % of control | dose: 100.0 mg/kg/injection, schedule: Q01DX005 (ip), vehicle: saline 98 % of control | dose: 200.0 mg/kg/injection, schedule: Q01DX005 (ip), vehicle: saline 95 % of control

Cc1cc(C)c(-c2cc(C(O)C3OC4OC(C)(C)OC4C3O)on2)c(C)c1 (stereo unspecified)
inactive: [22] 108 % of control | [23] 90 % of control

NNS(=O)(=O)c1ccc(Cl)cc1
inactive: dose: 25.0 mg/kg/injection, schedule: Q01DX009 (ip), vehicle: other 117 % of control | dose: 50.0 mg/kg/injection, schedule: Q01DX009 (ip), vehicle: other 113 % of control | dose: 100.0 mg/kg/injection, schedule: Q01DX009 (ip), vehicle: other 120 % of control | dose: 200.0 mg/kg/injection, schedule: Q01DX009 (ip), vehicle: other 120 % of control

CN(C)CCCn1c2c(c3ccccc31)CCCCC2
inactive: [22] 97 % of control | [23] 101 % of control | [24] 94 % of control

Oc1ccc(/C=N/N=C/c2ccc(O)c(O)c2)cc1O
inactive: [22] 121 % of control | [23] 106 % of control and 119 % of control | [24] 113 % of control | dose: 400.0 mg/kg/injection, schedule: Q01DX005 (ip), vehicle: saline with Tween-80 121 % of control

O=C(Nc1ccc(Sc2ccc(N=Nc3c(O)c(S(=O)(=O)O)cc4cc(S(=O)(=O)O)ccc34)cc2)cc1)c1ccc(N=Nc2c(O)ccc3c(S(=O)(=O)O)cc(S(=O)(=O)O)cc23)cc1
inactive: [1] 102 % of control | [2] 97 % of control | [3] 109 % of control

NC(=O)CCCCCBr
inactive: [11] 98 % of control | [12] 95 % of control | [13] 90 % of control

CCC1(CC)C(=O)N(C(C)=O)C2(C)C(=O)NC(=O)N2C1=O (stereo unspecified)
inactive: [15] 100 % of control | [16] 100 % of control | [17] 101 % of control

CC(=O)O.CC(=O)O.CC[OH+]CC[OH+]CC[OH+]C1CCCC2CCC[N-]C21.[Zn] (stereo unspecified)
inactive: dose: 6.25 mg/kg/injection, schedule: Q01DX005 (ip), vehicle: Klucel (hydroxypropylcellulose) (HPC) 111 % of control | dose: 12.5 mg/kg/injection, schedule: Q01DX005 (ip), vehicle: Klucel (hydroxypropylcellulose) (HPC) 105 % of control and 113 % of control (2×) | [14] 109 % of control and 113 % of control and 116 % of control

O=C(CC(c1ccccc1)c1ccccc1)c1ccccc1
inactive: [18] 86 % of control | [19] 90 % of control | [25] 88 % of control | dose: 400.0 mg/kg/injection, schedule: Q01DX009 (ip), vehicle: saline with Tween-80 89 % of control

CCC(=O)OCC1OC(OC2c3cc4c(cc3C(c3cc(OC)c(OC)c(OC)c3)C3C(=O)OCC23)OCO4)C(OC(=O)CC)C(OC(=O)CC)C1OC(=O)CC (stereo unspecified)
inactive: dose: 12.5 mg/kg/injection, schedule: Q01DX005 (ip), vehicle: saline with Tween-80 98 % of control | dose: 25.0 mg/kg/injection, schedule: Q01DX005 (ip), vehicle: saline with Tween-80 91 % of control | [22] 88 % of control and 89 % of control

Nc1nc(N)c2nc3c(ccc4ccccc43)nc2n1
inactive: dose: 60.0 mg/kg/injection, schedule: Q01DX005 (ip), vehicle: saline with Tween-80 94 % of control | dose: 120.0 mg/kg/injection, schedule: Q01DX005 (ip), vehicle: saline with Tween-80 96 % of control | dose: 240.0 mg/kg/injection, schedule: Q01DX005 (ip), vehicle: saline with Tween-80 104 % of control

C=CCNC(=O)/C(C)=C(\C)c1ccccc1
inactive: dose: 50.0 mg/kg/injection, schedule: Q04DX002 (ip), vehicle: Klucel (hydroxypropylcellulose) (HPC) 102 % of control | dose: 100.0 mg/kg/injection, schedule: Q04DX002 (ip), vehicle: Klucel (hydroxypropylcellulose) (HPC) 102 % of control | dose: 200.0 mg/kg/injection, schedule: Q04DX002 (ip), vehicle: Klucel (hydroxypropylcellulose) (HPC) 103 % of control

COc1cc2c(cc1OC)C13CCCC4(OCCO4)C1=CC2(C)O3 (stereo unspecified)
inactive: [18] 101 % of control | [19] 94 % of control | [25] 93 % of control
